Assay results as given in PubChem BioAssay (NCI).
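How tested: cells in 96-well plates exposed to compound for 48 hours at five concentrations. Abbreviation: GI50, concentration required for 50% inhibition of growth. Definition used: TGI = concentration required for complete inhibition of growth.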

Assays:
Assay in all cases: DTP human tumour cell line panel, 48 h; in the data active = GI50 below about 0.43 µM; inactive = the rest
HS 578T breast = system: HS 578T breast
SR leukemia = system: SR leukemia
NCI-H460 lung = system: NCI-H460 lung
SF-539 CNS = system: SF-539 CNS
NCI-H23 lung = system: NCI-H23 lung
M14 melanoma = system: M14 melanoma
SN12C renal = system: SN12C renal
OVCAR-5 ovarian = system: OVCAR-5 ovarian
CAKI-1 renal = system: CAKI-1 renal
UACC-62 melanoma = system: UACC-62 melanoma
A549 NSCLC = system: A549 NSCLC
TK-10 renal = system: TK-10 renal
A498 renal = system: A498 renal
T-47D breast = system: T-47D breast
SF-268 CNS = system: SF-268 CNS
UO-31 renal = system: UO-31 renal
UACC-257 melanoma = system: UACC-257 melanoma
NCI-H226 lung = system: NCI-H226 lung
HL-60(TB) leukemia = system: HL-60(TB) leukemia
DU-145 prostate = system: DU-145 prostate
ACHN renal = system: ACHN renal
SF-295 CNS = system: SF-295 CNS
K-562 leukemia = system: K-562 leukemia
PC-3 prostate = system: PC-3 prostate
HCT-15 colon = system: HCT-15 colon
786-0 renal = system: 786-0 renal
BT-549 breast = system: BT-549 breast
CCRF-CEM leukemia = system: CCRF-CEM leukemia
RPMI-8226 leukemia = system: RPMI-8226 leukemia
HCT-116 colon = system: HCT-116 colon
SK-MEL-28 melanoma = system: SK-MEL-28 melanoma
MOLT-4 leukemia = system: MOLT-4 leukemia
MALME-3M melanoma = system: MALME-3M melanoma
MDA-MB-468 breast = system: MDA-MB-468 breast
COLO 205 colon = system: COLO 205 colon
NCI/ADR-RES ovarian = system: NCI/ADR-RES ovarian
MDA-MB-435 = system: MDA-MB-435
HCC-2998 colon = system: HCC-2998 colon
IGROV1 ovarian = system: IGROV1 ovarian
OVCAR-3 ovarian = system: OVCAR-3 ovarian
SNB-19 CNS = system: SNB-19 CNS
NCI-H522 lung = system: NCI-H522 lung
OVCAR-4 ovarian = system: OVCAR-4 ovarian
KM12 colon = system: KM12 colon
HOP-92 NSCLC = system: HOP-92 NSCLC
OVCAR-8 ovarian = system: OVCAR-8 ovarian
SW-620 colon = system: SW-620 colon
EKVX NSCLC = system: EKVX NSCLC
HT29 colon = system: HT29 colon
MDA-MB-231 breast = system: MDA-MB-231 breast
SK-OV-3 ovarian = system: SK-OV-3 ovarian
HOP-62 NSCLC = system: HOP-62 NSCLC
SK-MEL-5 melanoma = system: SK-MEL-5 melanoma
MCF7 breast = system: MCF7 breast
SK-MEL-2 melanoma = system: SK-MEL-2 melanoma
LOX IMVI melanoma = system: LOX IMVI melanoma
U251 CNS = system: U251 CNS
SNB-75 CNS = system: SNB-75 CNS

COC(=O)c1ccc(-n2cc(CCCN(CCNc3ccnc4cc(Cl)ccc34)C(=O)CCC(=O)O[C@@H]3O[C@@H]4OC5(C)CC[C@H]6[C@H](C)CC[C@@H]([C@H]3C)[C@@]46OO5)nn2)cc1
3.85 µM: TGI (OVCAR-8 ovarian)
2.82 µM: TGI (HOP-92 NSCLC)
inactive: GI50 (HS 578T breast) 0.751 µM | GI50 (NCI-H460 lung) 6.15 µM | GI50 (SF-539 CNS) 3.15 µM | GI50 (NCI-H23 lung) 0.633 µM | GI50 (M14 melanoma) 2.65 µM | GI50 (SN12C renal) 1.68 µM | GI50 (OVCAR-5 ovarian) 0.796 µM | GI50 (CAKI-1 renal) 6.83 µM | GI50 (UACC-62 melanoma) 0.72 µM | GI50 (A549 NSCLC) 1.79 µM | GI50 (TK-10 renal) > 10.8 µM | GI50 (A498 renal) > 10.8 µM | GI50 (SF-268 CNS) 2.58 µM | GI50 (UO-31 renal) 1.03 µM | GI50 (UACC-257 melanoma) 0.89 µM | GI50 (NCI-H226 lung) 1.11 µM | GI50 (DU-145 prostate) > 10.8 µM | GI50 (ACHN renal) 1.87 µM | GI50 (SF-295 CNS) 3.24 µM | GI50 (786-0 renal) 3.74 µM | GI50 (BT-549 breast) 0.541 µM | GI50 (CCRF-CEM leukemia) 0.506 µM | GI50 (SK-MEL-28 melanoma) 1.33 µM | GI50 (MALME-3M melanoma) 1.25 µM | GI50 (MDA-MB-468 breast) 0.619 µM | GI50 (NCI/ADR-RES ovarian) 1.76 µM | GI50 (MDA-MB-435) 0.508 µM | GI50 (HCC-2998 colon) 2 µM | GI50 (IGROV1 ovarian) 1.88 µM | GI50 (SNB-19 CNS) > 10.8 µM | GI50 (NCI-H522 lung) 0.442 µM | GI50 (OVCAR-4 ovarian) 0.546 µM | GI50 (OVCAR-8 ovarian) 0.55 µM | GI50 (EKVX NSCLC) 0.827 µM | GI50 (HT29 colon) 0.519 µM | GI50 (MDA-MB-231 breast) 6.84 µM | GI50 (SK-OV-3 ovarian) > 10.8 µM | GI50 (HOP-62 NSCLC) > 10.8 µM | GI50 (SK-MEL-5 melanoma) 0.755 µM | GI50 (MCF7 breast) 0.444 µM | GI50 (SK-MEL-2 melanoma) 2.4 µM | GI50 (LOX IMVI melanoma) 0.429 µM | GI50 (U251 CNS) 0.805 µM | GI50 (SNB-75 CNS) 1.01 µM
2.32 µM: TGI (MCF7 breast)
2.41 µM: TGI (SK-MEL-5 melanoma)
active: GI50 (SR leukemia) 0.314 µM | GI50 (T-47D breast) 0.254 µM | GI50 (HL-60(TB) leukemia) 0.334 µM | GI50 (K-562 leukemia) 0.247 µM | GI50 (PC-3 prostate) 0.0917 µM | GI50 (HCT-15 colon) 0.246 µM | GI50 (RPMI-8226 leukemia) 0.189 µM | GI50 (HCT-116 colon) 0.155 µM | GI50 (MOLT-4 leukemia) 0.216 µM | GI50 (COLO 205 colon) 0.355 µM | GI50 (OVCAR-3 ovarian) 0.397 µM | GI50 (KM12 colon) 0.319 µM | GI50 (HOP-92 NSCLC) 0.28 µM | GI50 (SW-620 colon) 0.375 µM
> 10.8 µM: TGI (HS 578T breast) | TGI (NCI-H460 lung) | TGI (SF-539 CNS) | TGI (NCI-H23 lung) | TGI (M14 melanoma) | TGI (SN12C renal) | TGI (OVCAR-5 ovarian) | TGI (CAKI-1 renal) | TGI (UACC-62 melanoma) | TGI (A549 NSCLC) | TGI (TK-10 renal) | TGI (A498 renal) | TGI (T-47D breast) | TGI (SF-268 CNS) | TGI (UO-31 renal) | TGI (UACC-257 melanoma) | TGI (NCI-H226 lung) | TGI (DU-145 prostate) | TGI (ACHN renal) | TGI (SF-295 CNS) | TGI (PC-3 prostate) | TGI (786-0 renal) | TGI (BT-549 breast) | TGI (CCRF-CEM leukemia) | TGI (RPMI-8226 leukemia) | TGI (HCT-116 colon) | TGI (SK-MEL-28 melanoma) | TGI (COLO 205 colon) | TGI (NCI/ADR-RES ovarian) | TGI (HCC-2998 colon) | TGI (IGROV1 ovarian) | TGI (OVCAR-3 ovarian) | TGI (SNB-19 CNS) | TGI (NCI-H522 lung) | TGI (OVCAR-4 ovarian) | TGI (KM12 colon) | TGI (SW-620 colon) | TGI (EKVX NSCLC) | TGI (HT29 colon) | TGI (MDA-MB-231 breast) | TGI (SK-OV-3 ovarian) | TGI (HOP-62 NSCLC) | TGI (SK-MEL-2 melanoma) | TGI (U251 CNS) | TGI (SNB-75 CNS)
4.45 µM: TGI (MOLT-4 leukemia)
3.63 µM: TGI (MDA-MB-435)
10.3 µM: TGI (MDA-MB-468 breast)
2.75 µM: TGI (MALME-3M melanoma)
7.23 µM: TGI (K-562 leukemia)
2.13 µM: TGI (HCT-15 colon)
1.6 µM: TGI (HL-60(TB) leukemia)
6 µM: TGI (LOX IMVI melanoma)
4.09 µM: TGI (SR leukemia)
